Test results: patent US5821231A, “CS-1 peptidomimetics, compositions and methods of using same” (Cytel Corporation, priority 1995, dated 1998)
Square brackets hold non-standard residues; d marks the D form. Peptide text beside a SMILES is read from it. * marks the point of attachment. PhAc = O=C(Cc1ccccc1)*

Columns and labels:
[1] = system: New Zealand white rabbits; experiment: Rabbit heterotopic cardiac allograft model; format: in vivo
Description: New Zealand white female rabbits (Charles River Lab., Saint Laurent, Quebec), between 3.5 and 4 kg underwent heterotopic cardiac transplant following an experimental protocol previously described [Alonso et al., Am. J. Pathol., 87:415-442 (1977); Clausell et al., Circulation, 89:2768-2779 (1994)]. The animals were unselected to favor an HLA-mismatch, the host rabbits were Pasteurella-free and the donors, outbred animals. Both host and donor rabbits were fed Purina 5321-0.5 percent cholesterol diet (Research Diets Inc., New Brunswick, N.J.), a strategy that has proven useful in accelerating the process of allograft arteriopathy [Alonso et al., Am, J. Pathol., 87:415-442 (1977)]. The diet was commenced four days prior to the transplant and continued in the recipient of the transplant until the completion of the experimental period.
The technique of heterotopic cardiac transplantation has been previously described [Clausell et al., Circulation, 89:2768-2779 (1994)]. Briefly, a vertical incision was performed in the anterior aspect of the neck of the recipient rabbit and the left common carotid artery and the ipsilateral external jugular vein were isolated. The cardiac allograft was placed in the neck by anastomosing the aorta end-to-side to the recipient's carotid artery and the pulmonary end-to-side to the recipient's external jugular vein, following a total period of ischemia for the donor hearts of approximately 30 minutes. Postoperative care was in compliance with the Principles of Laboratory Animal Care formulated by the Canadian National Society for Medical Research.
Beginning the day of the transplant, the animals were randomized and treated with either scrambled compound (control group) at 1 mg/kg s.c. or the inhibitor compound at 1 mg/kg s.c. The doses of the compounds were empirically extrapolated to the in vivo model based on preliminary in vitro studies, of Table 1. No other immunosuppression therapy was administered. The grafts were monitored daily by palpation and maintained for 7 to 8 days, a previously described endpoint that was associated with myocardial rejection (impaired cardiac contractility) and development of the allograft arteriopathy in this model [Clausell et al., Circulation, 89:2768-2779 (1994)]. A total of fourteen animals were studied in the control (n=7) and treated (n=7) groups.
The animals were sacrificed using a lethal dose of euthanol (480 mg i.v.) (MTC Pharmaceutical, Cambridge, ON), host and donor hearts were removed, and the coronary arteries were perfused with saline through the aorta, followed by light fixation by perfusion with 2 percent paraformaldehyde (Sigma, St, Louis, Mo.). […] Different sections of the hearts were either saved in 10 percent formalin (BDH Inc., Toronto, ON) for light microscopy studies or immediately frozen in O.T.C. Compound Tissue Tek (Miles Inc., Elkart, Ind.) for specific immunohistochemistry studies.
Three different paraffin-embedded tissue sections from host and donor hearts from both control and treated rabbits were stained by the Movat pentachrome method for light microscopy. Morphometric analysis was performed using a Zeiss microscope attached to a computer-generated video analysis system (Perceptics Inc., NuVision software), as described in Clausell et al., Circulation, 89:2768-2779 (1994). The number of vessels with intimal lesions were counted in all three heart sections from each animal studied and are expressed as a percentage of the total vessel number.
In the host hearts, 999 vessels in the control group and 1054 vessels in the treated group were analyzed. In the donor hearts, 827 vessels in the control group and 617 vessels in the treated group were analyzed. To determine the severity of intimal thickening, the diameter of each traceable vessel in all three sections was measured and the coronary arteries were categorized as small (diameter <100 μm), medium (diameter >100<500 μm) and large (diameter >500 μm). […]

[2] = system: Porcine peripheral blood lymphocytes; experiment: In vitro porcine allograft model: transendothelial lymphocyte migration; format: cell-based; conditions: 10 μg/ml in the medium; IL-1β-stimulated SMC
Procedure: A similar study was carried out in vitro using porcine coronary artery endothelial cells (EC; as are present in the IEL) and smooth muscle cells (SMC; as are present in the medial layer of the artery). The two cell types were cultured using a membrane transwell system, with the SMC on the bottom layer in M-199 medium (Gibco Labs.). The SMC were stimulated with 100 ng/ml of interleukin-1β (IL-1β) for 24 hours prior to the start of the assay. Porcine peripheral blood lymphocytes were separated by Ficoll-Hypaque, radiolabeled and incubated overnight (about 18 hours) on the EC.

asthmatic sheep = experiment: Treatment of asthmatic sheep (Ascaris suum antigen, crossover); format: in vivo; conditions: nebulized 1 mg/kg; FIG. 7
Procedure: Six asthmatic sheep were treated in a double blind cross-over study. […] This study was carried out generally as described in Abraham et al., J. Clin. Invest., 93:776-787 (1994).
The inhibitor compound used here was Compound ID No. 896.52, N-phenylacetyl-Leu-Asp-Phe-D-Pro-NH2, with a control compound that comprised the previously described compound having the same residues in a scrambled sequence. The vehicle for the nebulized compounds was phosphate-buffered saline. The compounds were administered at a dose of 1 mg/kg each, twice a day for three days prior to challenge, as well as 0.5 hours prior to and four hours post challenge on day 4. Because this was a crossover study, each animal received one or the other treatment, followed by a rest and then the other treatment. Each animal therefore served as its own control.
Post challenge airway responsiveness was also assayed. Here, specific lung resistance, SRL, returned to baseline values 24 hours after challenge, however, the sheep were hyperresponsive to inhaled carbachol at that time.

CC(C)C[C@H](NC(=O)[C@H](CC(=O)O)NC(=O)Cc1ccccc1)C(=O)N[C@@H](Cc1ccccc1)C(=O)N1CCC[C@@H]1C(N)=O [N-phenylacetyl-Asp-Leu-Phe-D-Pro-NH2, reference compound] (PhAc-DLF[dP]-NH2)
Vessel Intimal Thickening: Percent of Vessels ([1]; donor heart, 1 mg/kg s.c.): 88% | Vessel Intimal Thickening: Severity (Percent of Vessel area) ([1]; donor heart, 1 mg/kg s.c.): 36% | Baseline of incidence of intimal thickening ([1]; rabbit own host heart): 1% | Baseline of severity of intimal thickening ([1]; rabbit own host heart): 12% | reduction of transendothelial lymphocyte migration [2]: did not reduce migration | change from baseline specific lung resistance (SRL) on challenge (asthmatic sheep): had an increase in that pulmonary function (SRL)
